Assay results taken from patent publication US20230132667A1, “DRUG-LIKE MOLECULES AND METHODS FOR THE THERAPEUTIC TARGETING OF VIRAL RNA STRUCTURES” (UNIVERSITY OF WASHINGTON, priority 2020, published 2023).
Non-standard residues stand in square brackets, D forms with d. Agb = N=C(N)NCC[C@H](N)C(=O)O; Dab = NCC[C@H](N)C(=O)O

Assays:
[1] = molecular target: HIV TAR; assay: 2-aminopurine (2AP) fluorescence binding assay; design: species or system HIV-1; conditions: 2AP-labeled HIV TAR, excess tRNA; single binding event; read-out: affinity by fitting Equation 1
Procedure: The fourth stage in the screening cascade quantifies binding using an orthogonal biophysical method.
To quantify binding of the compounds to HIV TAR, a 2-amino purine method was used. In this assay, U25 on HIV TAR was substituted with 2-aminopurine and binding assays were conducted on a Horiba Tau fluorometer.
2-AP binding assays. Fluorescence intensity binding assays were conducted using a method based on the incorporation of a single fluorescent base analogue (2-amino-purine, 2AP) in place of U25 for HIV TAR, and by monitoring changes in the reporter emission fluorescence intensity at 362 nm upon small molecule titration. Each experiment was collected in duplicate with 50 nM 2AP-TAR titrated with 5 mL of ligand stock solutions prepared by serial dilution. Methods were followed with 250×fold excess yeast tRNA added to the buffer as a competitor to reduce non-specific binding. Data were collected on a Horiba FL3-21tau Fluorescence Spectrophotometer, exported to Graphpad Prism v.8.1.1 and fit to Equation 1.
where Y is the measured fluorescence at 362 nm, Yi is fluorescence of the fully bound target, Yo is the fluorescence of the unbound RNA, Rt is total RNA concentration, Lt is total ligand concentration and Kd is the binding affinity.

[2] = tested on: HIV TAR; assay: Single point ligand-detected NMR relaxation assay in low salt buffer (stage 1); format: binding, HIV-1; conditions: 100 μM small molecule in low salt buffer, 10 μM RNA
Description: (§1) For initial screening and hit identification, a relaxation edited ligand-detect method is used to detect binding under low salt conditions. These initial conditions are chosen to facilitate the discovery of even low affinity compounds with favorable chemical characteristics. Binding compounds are identified through changes in peak height when comparing spectra for RNA-free and RNA-bound ligand (FIG. 8). The change in peak height is proportional to the increase in ligand line width, compared to the free small molecule, which occurs upon binding to the larger biomolecule. This NMR method is agnostic to biomolecular target, as it only depends on the longer rotational correlation time (Tc) of the small molecule bound in a complex with a much larger biomolecular target, which has a much […] correlation time; other NMR methods (e.g., STD) can be used as well.
(§2) Stage 1. […] The free ligand linewidths of compounds dissolved at concentration of 100 μM were quantified and compared to the ligand linewidths observed after addition of 10 μM RNA target. […]
(§3) Small molecule hit identification and tiered approach to ligand-detected NMR screening. In order to identify small molecules that bind to RNA and quantify the strength of the interaction, a tiered approach to NMR screening involving both ligand- and target-detected NMR experiments was used. […]

[3] = tested on: pre-miR-21; assay: as above; format: binding; conditions: 100 μM small molecule in low salt buffer, 10 μM RNA
Description: as §1, §2, §3

[4] = tested on: HIV TAR; assay: Target-detected NMR (TOCSY, 1D imino spectra; stage 3); format: binding, HIV-1; conditions: chemical shift changes, TOCSY / 1D 1H imino spectra
Procedure: Stage 3. The third stage in the screening cascade involves monitoring changes in the NMR spectra of the RNA target to identity where on the target the compound binds and examine the structural characteristics of the interaction. This step is conducted in the same […] buffer used for screening, prepared either in 95% H2O/5% D2O (water buffer) or 99.99% D2O (D2O buffer) to monitor different classes of proton resonances (FIGS. 10A and 10B). Uniform labeling of bases with ^13C and ^15N can also be performed, but this is relatively expensive.
Target detect NMR assays to measure RNA-ligand interactions. Transcribed RNA sequences (at natural isotopic abundance, along with ^15N/^13C enriched or selectively labeled ^2H samples) are snap-cooled in 250-500 μL NMR buffer (50 mM d9 bis-Tris pH 6.5, 50 mM NaCl) by heating to 95° C. for 4 min then placed at −20° C. until frozen. All ligand stocks were dissolved in 10-20 mM H2O, D2O or DMSO depending on ligand solubility. […] Ligand interactions are detected by changes in chemical shift through a series of NMR experiments, including but not limited to 1D ^1H and 2D ^1H-^1H TOCSY, ^1H-^1H NOESY, ^1H-^1H EXSY, ^15N-^1H HSQC, and ^13C-^1H HSQC experiments, which are used to map the binding site of the ligand on the RNA. […]

[5] = tested on: Tat-dependent reactivation; conditions: cited from earlier work

| Molecule | Kd [1] [nM] | single point binding response to HIV TAR [2] | single point binding response to pre-miR-21 [3] | binding to HIV TAR by target-detected NMR (qualitative) [4] | inhibition of Tat-dependent reactivation in cells [5] |
| --- | --- | --- | --- | --- | --- |
| CN(C)C(=O)c1cc2cnc(Nc3ccc(N4CCNCC4)cn3)nc2n1C1CCCC1 [Ribociclib] | 215 ± 56 | binding responses | binding responses | high nM binding |  |
| cyclo(P(dab)VRTRKGRRI(NOR)Ip) (cyclo(P[Dab]VRTRKGRRI[Agb]I[dP])) [JB181] |  |  |  |  | only moderately inhibits |
